# Source: PubChem BioAssay (NCI)
#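 A five-concentration, 48-hour dose response in 96-well plates underlies each endpoint, interpolated linearly between surrounding concentrations. Here, GI50 denotes the concentration required for 50% inhibition of growth. At the TGI there is no net growth.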
# Experiments:
# Assay in all cases: NCI tumour cell line growth inhibition, 48 h
# NCI-H23 lung = tested on: NCI-H23 lung
# NCI-H460 lung = tested on: NCI-H460 lung
# NCI-H522 lung = tested on: NCI-H522 lung
# NCI/ADR-RES ovarian = tested on: NCI/ADR-RES ovarian
# OVCAR-3 ovarian = tested on: OVCAR-3 ovarian
# OVCAR-4 ovarian = tested on: OVCAR-4 ovarian
# OVCAR-5 ovarian = tested on: OVCAR-5 ovarian
# OVCAR-8 ovarian = tested on: OVCAR-8 ovarian
# PC-3 prostate = tested on: PC-3 prostate
# RPMI-8226 leukemia = tested on: RPMI-8226 leukemia
# RXF 393 renal = tested on: RXF 393 renal
# SF-268 CNS = tested on: SF-268 CNS
# SF-295 CNS = tested on: SF-295 CNS
# SF-539 CNS = tested on: SF-539 CNS
# SK-MEL-2 melanoma = tested on: SK-MEL-2 melanoma
# SK-MEL-28 melanoma = tested on: SK-MEL-28 melanoma
# SK-MEL-5 melanoma = tested on: SK-MEL-5 melanoma
# SK-OV-3 ovarian = tested on: SK-OV-3 ovarian
# SN12C renal = tested on: SN12C renal
# SNB-19 CNS = tested on: SNB-19 CNS
# SNB-75 CNS = tested on: SNB-75 CNS
# SR leukemia = tested on: SR leukemia
# SW-620 colon = tested on: SW-620 colon
# T-47D breast = tested on: T-47D breast
# TK-10 renal = tested on: TK-10 renal
# U251 CNS = tested on: U251 CNS
# UACC-257 melanoma = tested on: UACC-257 melanoma
# UO-31 renal = tested on: UO-31 renal
structure (smiles),measurement,setting,value
COc1cccc2c1C(=O)c1c(O)c3c(c(O)c1C2=O)CC(O)(/C(C)=N/NC(=O)CCCCC(=O)N/N=C(\C)C1(O)Cc2c(O)c4c(c(O)c2C(OC2CC(N)C(O)C(C)O2)C1)C(=O)c1c(OC)cccc1C4=O)CC3OC1CC(N)C(O)C(C)O1 (stereo not given),GI50,NCI-H23 lung,173 nM
same,TGI,NCI-H23 lung,1120 nM
same,GI50,NCI-H460 lung,45.6 nM
same,TGI,NCI-H460 lung,10900 nM
same,GI50,NCI-H522 lung,108 nM
same,TGI,NCI-H522 lung,811 nM
same,GI50,NCI/ADR-RES ovarian,17900 nM
same,TGI,NCI/ADR-RES ovarian,> 50000 nM
same,GI50,OVCAR-3 ovarian,200 nM
same,TGI,OVCAR-3 ovarian,2750 nM
same,GI50,OVCAR-4 ovarian,401 nM
same,TGI,OVCAR-4 ovarian,8430 nM
same,GI50,OVCAR-5 ovarian,862 nM
same,TGI,OVCAR-5 ovarian,> 50000 nM
same,GI50,OVCAR-8 ovarian,215 nM
same,TGI,OVCAR-8 ovarian,> 50000 nM
same,GI50,PC-3 prostate,597 nM
same,TGI,PC-3 prostate,9180 nM
same,GI50,RPMI-8226 leukemia,139 nM
same,TGI,RPMI-8226 leukemia,2630 nM
same,GI50,RXF 393 renal,209 nM
same,TGI,RXF 393 renal,831 nM
same,GI50,SF-268 CNS,147 nM
same,TGI,SF-268 CNS,4580 nM
same,GI50,SF-295 CNS,125 nM
same,TGI,SF-295 CNS,689 nM
same,GI50,SF-539 CNS,121 nM
same,TGI,SF-539 CNS,465 nM
same,GI50,SK-MEL-2 melanoma,585 nM
same,TGI,SK-MEL-2 melanoma,1790 nM
same,GI50,SK-MEL-28 melanoma,473 nM
same,TGI,SK-MEL-28 melanoma,1620 nM
same,GI50,SK-MEL-5 melanoma,97.4 nM
same,TGI,SK-MEL-5 melanoma,584 nM
same,GI50,SK-OV-3 ovarian,227 nM
same,GI50,SN12C renal,178 nM
same,TGI,SN12C renal,> 50000 nM
same,GI50,SNB-19 CNS,164 nM
same,TGI,SNB-19 CNS,1570 nM
same,GI50,SNB-75 CNS,118 nM
same,TGI,SNB-75 CNS,867 nM
same,GI50,SR leukemia,8.27 nM
same,TGI,SR leukemia,36.5 nM
same,GI50,SW-620 colon,147 nM
same,TGI,SW-620 colon,33400 nM
same,GI50,T-47D breast,93.1 nM
same,TGI,T-47D breast,2070 nM
same,GI50,TK-10 renal,716 nM
same,TGI,TK-10 renal,> 14300 nM
same,GI50,U251 CNS,147 nM
same,TGI,U251 CNS,> 23700 nM
same,GI50,UACC-257 melanoma,554 nM
same,TGI,UACC-257 melanoma,2370 nM
same,GI50,UO-31 renal,1340 nM
same,TGI,UO-31 renal,> 22000 nM
